According to publication PMC3510438, “The transmembrane tyrosines Y56, Y91 and Y167 play important roles in determining the affinity and transport rate of the rabbit proton-coupled peptide transporter PepT1” (The International Journal of Biochemistry & Cell Biology, 2009):
Positions count from the first letter of the chain named.

Assays:
Assay in all cases: Uptake of tracer [3H]-D-Phe-L-Gln into Xenopus oocytes
Format in all cases: cell-based, rabbit
[1] = target: T1, wild-type rPepT1 (Oryctolagus cuniculus, UniProt P36836); details: 0.4 μM tracer; pHout 5.5; 1 h; non-injected control subtracted
T1 construct: expressed in transfected cells; host or cells: Xenopus laevis oocytes injected with cRNA
T1 sequence (P36836 1-707): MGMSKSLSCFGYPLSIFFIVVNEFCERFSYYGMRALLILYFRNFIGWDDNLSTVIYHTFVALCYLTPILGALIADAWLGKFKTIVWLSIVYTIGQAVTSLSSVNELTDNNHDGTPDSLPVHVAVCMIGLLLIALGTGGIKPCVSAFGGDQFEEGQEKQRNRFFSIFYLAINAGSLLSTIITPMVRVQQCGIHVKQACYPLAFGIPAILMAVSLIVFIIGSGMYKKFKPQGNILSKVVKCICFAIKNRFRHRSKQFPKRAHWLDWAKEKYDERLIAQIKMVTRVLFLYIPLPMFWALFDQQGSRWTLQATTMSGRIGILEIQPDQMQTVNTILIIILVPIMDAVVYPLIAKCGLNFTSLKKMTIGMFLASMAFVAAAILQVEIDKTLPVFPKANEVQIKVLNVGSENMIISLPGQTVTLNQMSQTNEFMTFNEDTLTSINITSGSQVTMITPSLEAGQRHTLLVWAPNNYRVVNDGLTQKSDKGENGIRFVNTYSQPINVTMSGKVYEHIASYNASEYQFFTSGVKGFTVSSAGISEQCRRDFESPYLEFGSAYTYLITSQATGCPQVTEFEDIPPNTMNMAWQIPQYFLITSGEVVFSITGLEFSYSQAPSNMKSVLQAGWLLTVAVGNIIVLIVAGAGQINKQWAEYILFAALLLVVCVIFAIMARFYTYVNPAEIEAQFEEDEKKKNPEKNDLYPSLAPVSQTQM
Experimental: (§1) rPepT1 constructs were linearised with XbaI (New England Biolabs, UK) and cRNA generated by in vitro transcription (T7 mMessage mMachine, Ambion, Cambridgeshire, UK). Xenopus laevis oocytes were obtained under MS222 anaesthesia (0.2%, w/v) in accordance with the UK Animals (Scientific Procedures) Act, 1986, and maintained at 18 °C in modified Barth's medium (88 mM NaCl, 1 mM KCl, 0.82 mM MgSO4, 2.4 mM NaHCO3, 0.42 mM CaCl2, 10 mM Hepes, 5 mM sodium pyruvate, 50 μg ml^−1 gentamicin (Fluka, Poole, UK), adjusted to pH 7.6 with 1 M NaOH). Transport measurements were performed at least 72 h after micro-injection of oocytes with 27nl cRNA (1 μg/μl), with medium changed daily.
(§2) Uptake of [^3H]-D-Phe-L-Gln (17.4 Ci/mmole, custom synthesised, Cambridge Research Biochemicals, Stockton-on-Tees, UK) was performed as previously described ([Meredith, 2004]). Briefly, 5 oocytes were incubated in 100 μl of uptake medium (95 mM NaCl, 2 mM KCl, 1 mM CaCl2, 0.42 mM MgCl2, 10 mM Tris/Hepes pH 7.4 or Tris/Mes pH 5.5) with tracer (0.4 μM) [^3H]-D-Phe-L-Gln. After incubation, the oocytes were washed sequentially five times in 1 ml of ice-cold 120 mM NaCl solution, lysed individually with 100 μl 2% (w/v) SDS and liquid scintillation counted. As a control non-injected oocytes were also incubated in uptake medium with D-Phe-L-Gln as above.

[2] = target: T2, Y167R-rPepT1 (Oryctolagus cuniculus, UniProt P36836, Y167R); details: both pHout 5.5 and 7.4
T2 construct: expressed in transfected cells; host or cells: Xenopus laevis oocytes injected with cRNA
T2 sequence (P36836 1-707 Y167R): T1 sequence (P36836 1-707) with Y167R
Experimental: as §1, §2

[3] = target: T3, Y167F-rPepT1 (Oryctolagus cuniculus, UniProt P36836, Y167F)
T3 construct: expressed in transfected cells; host or cells: Xenopus laevis oocytes injected with cRNA
T3 sequence (P36836 1-707 Y167F): T1 sequence (P36836 1-707) with Y167F
Experimental: as §1, §2

Which results are given for [^3H]-D-Phe-L-Gln?
uptake [1]: 342 ± 37 fmol peptide/(oocyte h); reduction of uptake compared to the wild-type [2]: > 90%; reduction of uptake compared to the wild-type ([3]; both pHout 5.5 and 7.4): > 90%; decrease in rate of uptake compared to the wild-type ([3]; pHout 5.5, 1 h): ~90%
